Results reported in publication PMC5686171 (Scientific Reports, 2017).
Where two headings read alike, the source gives them in different places.

What was measured:
γ2S217Aβ2 = target: T1, γ2S217Aβ2 (Rattus norvegicus, UniProt P18508+P63138, S255A); experiment: Two-electrode voltage clamp, mutant γ2S217Aβ2 in Xenopus oocytes; format: cell-based; conditions: for DZ potentiation: 1 µM diazepam
T1 construct: expressed in transfected cells; host or cells: Xenopus laevis oocytes (cRNA injection, β2:γ2 1:3)
T1 sequence (P63138 25-474 limits assumed): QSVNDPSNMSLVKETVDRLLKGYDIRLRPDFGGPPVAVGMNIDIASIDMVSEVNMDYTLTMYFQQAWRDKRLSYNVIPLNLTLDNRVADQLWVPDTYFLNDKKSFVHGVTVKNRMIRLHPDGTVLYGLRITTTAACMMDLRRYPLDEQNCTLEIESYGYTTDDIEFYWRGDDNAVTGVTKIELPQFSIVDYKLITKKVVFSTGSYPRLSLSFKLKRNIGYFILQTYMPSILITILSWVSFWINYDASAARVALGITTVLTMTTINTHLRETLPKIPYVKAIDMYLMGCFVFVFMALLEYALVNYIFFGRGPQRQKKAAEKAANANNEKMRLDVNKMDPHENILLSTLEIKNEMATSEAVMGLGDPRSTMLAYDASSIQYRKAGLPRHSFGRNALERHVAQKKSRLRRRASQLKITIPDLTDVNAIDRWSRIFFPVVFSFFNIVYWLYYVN
T1 sequence (P18508 39-466 S255A): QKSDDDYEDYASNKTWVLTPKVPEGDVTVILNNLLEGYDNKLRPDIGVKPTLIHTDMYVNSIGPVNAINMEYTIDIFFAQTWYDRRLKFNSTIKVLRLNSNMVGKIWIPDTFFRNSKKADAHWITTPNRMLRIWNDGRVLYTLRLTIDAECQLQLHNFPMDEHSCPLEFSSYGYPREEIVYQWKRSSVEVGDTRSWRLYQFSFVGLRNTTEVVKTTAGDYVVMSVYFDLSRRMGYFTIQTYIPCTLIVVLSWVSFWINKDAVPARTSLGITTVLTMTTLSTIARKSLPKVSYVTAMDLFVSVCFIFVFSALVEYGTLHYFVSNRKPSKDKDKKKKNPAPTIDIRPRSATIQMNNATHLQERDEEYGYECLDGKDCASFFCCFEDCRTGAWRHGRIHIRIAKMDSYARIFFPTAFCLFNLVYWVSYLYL
Method: (§1) The point mutations β2Y62Lγ2, β2T202Aγ2, β2T202Sγ2, β2Y205Sγ2, β2Y205Qγ2, β2γ2F77Y, β2γ2S217A, β2γ2Y220S and β2γ2Y220Q were prepared using the QuickChange^TM mutagenesis kit (Stratagene, Agilent Technologies, Basel, Switzerland).
(§2) Animal experiments were carried out in strict accordance to the Swiss ethical guidelines, and have been approved by the local committee of the Canton Bern Kantonstierarzt, Kantonaler Veterinärdienst Bern (BE85/15). Surgery of Xenopus laevis to obtain the oocytes was done under anesthesia, and all efforts were made to diminish animal suffering. Oocytes were prepared, injected and defolliculated as described previously[41],[42]. Polyadenylated cRNA coding for the subunits of GABAA receptors were prepared in vitro with the mMESSAGE mMACHINE kit (Ambion, Austin, TX, USA). Oocytes were injected with 50 nl of solution containing cRNA coding for wild type or mutants β2 (1 fMol) or γ2 (3 fMol) subunits and then incubated in modified Barth’s solution (10 mM HEPES, pH 7.5, 88 mM NaCl, 1 mM KCl, 2.4 mM NaHCO3, 0.82 mM MgSO4, 0.34 mM Ca(NO3)2, 0.41 mM CaCl2, 100 units/ml penicillin, 100 µg/ml streptomycin) at 18 °C for 5–7 days before measurements.
(§3) Electrophysiological experiments were performed using an Oocyte Clamp OC-725 (Warner Instrument Corp., Hamden, USA) two-electrode voltage clamp amplifier. Currents were digitized at 5 kHz with MacLab/200 (AD Instruments, Spechbach, Germany).
(§4) The holding potential was −80 mV. The perfusion medium contained 90 mM NaCl, 1 mM KCl, 1 mM MgCl2, 1 mM CaCl2 and 5 mM Na-HEPES (pH 7.4). The perfusion solution (6 ml/min) was applied through a glass capillary with an inner diameter of 1.35 mm, the mouth of which was placed about 0.5 mm from the surface of the oocyte. […] Maximal current amplitudes (Imax) were obtained from the fits of the concentration-response curves. The individual curves were fitted and standardized to Imax and subsequently averaged. […] The duration of washout periods was 4 min in between agonist or agonist/drug applications to prevent receptor desensitization. […]

γ2F77Yβ2 = target: T2, γ2F77Yβ2 (Rattus norvegicus, UniProt P18508+P63138, F115Y); experiment: Two-electrode voltage clamp, mutant γ2F77Yβ2 in Xenopus oocytes; format: cell-based; conditions: for DZ potentiation: 1 µM diazepam
T2 construct: expressed in transfected cells; host or cells: Xenopus laevis oocytes (cRNA injection, β2:γ2 1:3)
T2 sequence (P63138 25-474 limits assumed): as the sequence (P63138 25-474 limits assumed) above
T2 sequence (P18508 39-466 F115Y): as the sequence (P18508 39-466 S255A) above, with F77Y, A217S counted along it
Method: as §1, §2, §3, §4

β2Y62Lγ2 = target: T3, β2Y62Lγ2 (Rattus norvegicus, UniProt P18508+P63138, Y86L); experiment: Two-electrode voltage clamp, mutant β2Y62Lγ2 in Xenopus oocytes; format: cell-based; conditions: for DZ potentiation: 1 µM diazepam
T3 construct: expressed in transfected cells; host or cells: Xenopus laevis oocytes (cRNA injection, β2:γ2 1:3)
T3 sequence (P63138 25-474 Y86L limits assumed): as the sequence (P63138 25-474 limits assumed) above, with Y62L counted along it
T3 sequence (P18508 39-466): as the sequence (P18508 39-466 S255A) above, with A217S counted along it
Method: as §1, §2, §3, §4

γ2Y220Qβ2 = target: T4, γ2Y220Qβ2 (Rattus norvegicus, UniProt P18508+P63138, Y258Q); experiment: Two-electrode voltage clamp, mutant γ2Y220Qβ2 in Xenopus oocytes; format: cell-based; conditions: for DZ potentiation: 1 µM diazepam
T4 construct: expressed in transfected cells; host or cells: Xenopus laevis oocytes (cRNA injection, β2:γ2 1:3)
T4 sequence (P63138 25-474 limits assumed): as the sequence (P63138 25-474 limits assumed) above
T4 sequence (P18508 39-466 Y258Q): as the sequence (P18508 39-466 S255A) above, with A217S, Y220Q counted along it
Method: as §1, §2, §3, §4

γ2 = target: T5, γ2 (Rattus norvegicus, UniProt P18508); experiment: Two-electrode voltage clamp, γ2 subunit expressed alone in Xenopus oocytes; format: cell-based
T5 construct: expressed in transfected cells; host or cells: Xenopus laevis oocytes (cRNA injection)
T5 sequence (P18508 39-466): as the sequence (P18508 39-466 S255A) above, with A217S counted along it
Method: as §2, §3
(§5) The holding potential was −80 mV. The perfusion medium contained 90 mM NaCl, 1 mM KCl, 1 mM MgCl2, 1 mM CaCl2 and 5 mM Na-HEPES (pH 7.4). […]

β2T202Sγ2 = target: T6, β2T202Sγ2 (Rattus norvegicus, UniProt P18508+P63138, T226S); experiment: Two-electrode voltage clamp, mutant β2T202Sγ2 in Xenopus oocytes; format: cell-based; conditions: for DZ potentiation: 1 µM diazepam
T6 construct: expressed in transfected cells; host or cells: Xenopus laevis oocytes (cRNA injection, β2:γ2 1:3)
T6 sequence (P63138 25-474 T226S limits assumed): as the sequence (P63138 25-474 limits assumed) above, with T202S counted along it
T6 sequence (P18508 39-466): as the sequence (P18508 39-466 S255A) above, with A217S counted along it
Method: as §1, §2, §3, §4

β2γ2 GABAA receptors = target: T7, β2γ2 GABAA receptors (Rattus norvegicus, UniProt P18508+P63138); experiment: Two-electrode voltage clamp, wild type β2γ2 receptors expressed in Xenopus oocytes; format: cell-based; conditions: for GABA current amplitude: 10 mM GABA; for DZ potentiation: 1 µM diazepam, GABA eliciting 1–5% of maximal current
T7 construct: expressed in transfected cells; host or cells: Xenopus laevis oocytes (cRNA injection, β2:γ2 1:3)
T7 sequence (P63138 25-474 limits assumed): as the sequence (P63138 25-474 limits assumed) above
T7 sequence (P18508 39-466): as the sequence (P18508 39-466 S255A) above, with A217S counted along it
Method: as §2, §3, §4

β2 = target: T8, β2 (Rattus norvegicus, UniProt P63138); experiment: Two-electrode voltage clamp, β2 subunit expressed alone in Xenopus oocytes; format: cell-based
T8 construct: expressed in transfected cells; host or cells: Xenopus laevis oocytes (cRNA injection)
T8 sequence (P63138 25-474 limits assumed): as the sequence (P63138 25-474 limits assumed) above
Method: as §2, §3, §5

[1] = tested on: mice carrying a point mutation in all those four alpha subunits; design: method as in Ralvenius et al.[40]; conditions: point-mutated mice, 10 mg/kg diazepam, ref Ralvenius et al.[40], cited from earlier work
α1T206V in α1β2γ2 = conditions: ref [28]; cited from earlier work
α1T206C in α1β2γ2 = conditions: ref [12],[27]; cited from earlier work
γ2F77Y in α1β2γ2 = conditions: ref [29], cited from earlier work
α1T206A in α1β2γ2 = conditions: ref [26]; cited from earlier work
α1β2γ2 = conditions: read-out: EC50 of diazepam; cited from earlier work
β2Y205Sγ2 = target: T9, β2Y205Sγ2 (Rattus norvegicus, UniProt P18508+P63138, Y229S); experiment: Two-electrode voltage clamp, mutant β2Y205Sγ2 in Xenopus oocytes; format: cell-based; conditions: 50 µM etomidate
T9 construct: expressed in transfected cells; host or cells: Xenopus laevis oocytes (cRNA injection, β2:γ2 1:3)
T9 sequence (P63138 25-474 Y229S): as the sequence (P63138 25-474 limits assumed) above, with Y205S counted along it
T9 sequence (P18508 39-466): as the sequence (P18508 39-466 S255A) above, with A217S counted along it
Method: as §1, §2
(§6) Electrophysiological experiments were performed using an Oocyte Clamp OC-725 (Warner Instrument Corp., Hamden, USA) two-electrode voltage clamp amplifier. […]

β2Y205Qγ2 = target: T10, β2Y205Qγ2 (Rattus norvegicus, UniProt P18508+P63138, Y229Q); experiment: Two-electrode voltage clamp, mutant β2Y205Qγ2 in Xenopus oocytes; format: cell-based; conditions: 50 µM etomidate
T10 construct: expressed in transfected cells; host or cells: Xenopus laevis oocytes (cRNA injection, β2:γ2 1:3)
T10 sequence (P63138 25-474 Y229Q): as the sequence (P63138 25-474 limits assumed) above, with Y205Q counted along it
T10 sequence (P18508 39-466): as the sequence (P18508 39-466 S255A) above, with A217S counted along it
Method: as §1, §2, §6

α1β2Y62Lγ2 receptors = experiment: Effect of mutation β2Y62L in α1β2γ2 receptors; format: cell-based; conditions: 50 µM etomidate vs GABA
β2T202Aγ2 = target: T11, β2T202Aγ2 (Rattus norvegicus, UniProt P18508+P63138, T226A); experiment: Two-electrode voltage clamp, mutant β2T202Aγ2 in Xenopus oocytes; format: cell-based; conditions: 50 µM etomidate
T11 construct: expressed in transfected cells; host or cells: Xenopus laevis oocytes (cRNA injection, β2:γ2 1:3)
T11 sequence (P63138 25-474 T226A): as the sequence (P63138 25-474 limits assumed) above, with T202A counted along it
T11 sequence (P18508 39-466): as the sequence (P18508 39-466 S255A) above, with A217S counted along it
Method: as §1, §2, §6

γ2Y220Sβ2 = target: T12, γ2Y220Sβ2 (Rattus norvegicus, UniProt P18508+P63138, Y258S); experiment: Two-electrode voltage clamp, mutant γ2Y220Sβ2 in Xenopus oocytes; format: cell-based; conditions: 50 µM etomidate
T12 construct: expressed in transfected cells; host or cells: Xenopus laevis oocytes (cRNA injection, β2:γ2 1:3)
T12 sequence (P63138 25-474 limits assumed): as the sequence (P63138 25-474 limits assumed) above
T12 sequence (P18508 39-466 Y258S): as the sequence (P18508 39-466 S255A) above, with A217S, Y220S counted along it
Method: as §1, §2, §6

For `NCCCC(=O)O` [GABA, γ-Aminobutyric acid], the “Hill coefficient of GABA” value (γ2S217Aβ2; β2γ2S217A) was 0.8 ± 0.1, the “Decrease in sensitivity to GABA” value (γ2S217Aβ2; β2γ2S217A vs wild-type β2γ2) was 2 fold and the GABA current amplitude (γ2S217Aβ2; γ2S217Aβ2, 10 mM GABA) was 100 ± 25 (13) nA. For the same molecule, the “Hill coefficient of GABA” value (γ2F77Yβ2) was 0.9 ± 0.1, the GABA current amplitude (γ2F77Yβ2; 10 mM GABA) was 148 ± 23 (11) nA and the “Hill coefficient of GABA” value (β2Y62Lγ2; β2Y62Lγ2) was 1.0 ± 0.1. For the same molecule, the GABA current amplitude (β2Y62Lγ2; β2Y62Lγ2, 10 mM GABA) was 53 ± 8 (17) nA, the “Decrease in the sensitivity for GABA” value (β2Y62Lγ2; β2Y62Lγ2 vs wild-type β2γ2) was 3 fold and the “Smaller GABA current amplitude compared to wild-type” value (β2Y62Lγ2; β2Y62Lγ2 vs wild-type β2γ2) was 2 fold. For the same molecule, the “Hill coefficient of GABA” value (γ2Y220Qβ2; β2γ2Y220Q) was 0.7 ± 0.1, the “Decrease in sensitivity to GABA” value (γ2Y220Qβ2; β2γ2Y220Q vs wild-type β2γ2) was 5 fold and the GABA current amplitude (γ2Y220Qβ2; γ2Y220Qβ2, 10 mM GABA) was 127 ± 40 (6) nA. For the same molecule, the GABA current amplitude (γ2; 10 mM GABA) was −4 ± 1 (5) nA, the “Hill coefficient of GABA” value (β2T202Sγ2; β2T202Sγ2) was 0.8 ± 0.1 and the GABA current amplitude (β2T202Sγ2; β2T202Sγ2, 10 mM GABA) was 203 ± 18 (5) nA. The “Decrease in GABA sensitivity” value (β2T202Sγ2; β2T202Sγ2 vs wild-type β2γ2) was 42 fold, the “Hill coefficient of GABA” value (β2γ2 GABAA receptors; β2γ2) was 1.0 ± 0.1 and the GABA current amplitude (β2γ2 GABAA receptors; β2γ2, cRNA ratio 1:3, −80 mV) was 131 ± 19 (13) nA. For the same molecule, the GABA current amplitude (β2γ2 GABAA receptors; β2γ2 from 1:1 and 2:1 cRNA ratios) was “less than 100 nA” and the GABA current amplitude (β2; 10 mM GABA) was −4 ± 1 (4) nA.

In the case of `CN1C(=O)CN=C(c2ccccc2)c2cc(Cl)ccc21` [diazepam], the Locomotor activity ([1]; quite prominent at higher doses) is given as “trend towards reduced locomotor activity”, the “Diazepam-induced muscle relaxation and motor impairment” value [1] is given as “completely protected” and the DZ potentiation (γ2S217Aβ2; γ2S217Aβ2) is given as “not significantly affected”. For the same molecule, the DZ potentiation (γ2S217Aβ2; γ2S217Aβ2, listed as DZ) was 185 ± 23 (4) %, the DZ potentiation (γ2F77Yβ2) was “nearly lost” and the DZ potentiation (γ2F77Yβ2; listed as DZ) was 5 ± 2 (5) %. The “Decrease in DZ affinity” value (α1T206V in α1β2γ2) was “(7-fold decrease in DZ affinity)”, the DZ potentiation (β2Y62Lγ2; β2Y62Lγ2) was “not significantly affected” and the DZ potentiation (β2Y62Lγ2; β2Y62Lγ2, listed as DZ) was 121 ± 12 (5) %. For the same molecule, the DZ potentiation (γ2Y220Qβ2; γ2Y220Qβ2) was “not significantly affected”, the DZ potentiation (γ2Y220Qβ2; γ2Y220Qβ2, listed as DZ) was 127 ± 11 (6) % and the “Effect on DZ affinity” value (α1T206C in α1β2γ2) was “(no effect on DZ affinity)”. For the same molecule, the DZ potentiation (β2T202Sγ2; β2T202Sγ2) was “not significantly affected”, the DZ potentiation (β2T202Sγ2; β2T202Sγ2, listed as DZ) was 100 ± 7 (4) % and the “Decrease in DZ affinity” value (γ2F77Y in α1β2γ2; listed as DZ) was 230-fold decrease in DZ affinity. The “Decrease in DZ affinity” value (γ2F77Y in α1β2γ2) was “abolishes the binding site”, the “Decrease in DZ affinity” value (α1T206A in α1β2γ2) was “(3-fold decrease in DZ affinity)” and the “Hill coefficient of diazepam” value (β2γ2 GABAA receptors; β2γ2) was 0.6 ± 0.1. For the same molecule, the DZ potentiation (β2γ2 GABAA receptors; β2γ2) was 216 ± 30%, the DZ potentiation (β2γ2 GABAA receptors; β2γ2, listed as DZ) was 216 ± 30 (15) % and the EC50 (α1β2γ2) was 92 ± 6 nM.

In the case of `CCOC(=O)c1cncn1[C@H](C)c1ccccc1` [etomidate], the Etomidate current amplitude (β2Y205Sγ2) is reported as 0 ± 0 (5) nA, the Etomidate current amplitude (β2Y205Qγ2) is reported as 6 ± 2 (5) nA and the Etomidate current amplitude (γ2S217Aβ2; γ2S217Aβ2, 50 µM etomidate) is reported as 141 ± 31 (5) nA. For the same molecule, the Etomidate current amplitude (γ2F77Yβ2; 50 µM etomidate) was 193 ± 25 (4) nA, the Etomidate current amplitude (β2Y62Lγ2; β2Y62Lγ2, 50 µM etomidate) was 13 ± 3 (11) nA and the “Etomidate current relative to GABA current (fold smaller)” value (β2Y62Lγ2; β2Y62Lγ2, 50 µM etomidate vs saturating GABA) was “about 4 fold”. The Etomidate current amplitude (γ2Y220Qβ2; γ2Y220Qβ2, 50 µM etomidate) was 777 ± 113 (5) nA, the “Etomidate current relative to GABA current (fold smaller)” value (α1β2Y62Lγ2 receptors) was “about 30 fold” and the Etomidate current amplitude (γ2; 50 µM etomidate) was 0 ± 0 (5) nA. The Etomidate current amplitude (β2T202Sγ2; β2T202Sγ2, 50 µM etomidate) was 380 ± 77 (5) nA, the Etomidate current amplitude (β2T202Aγ2) was 8 ± 2 (5) nA and the Etomidate current amplitude (γ2Y220Sβ2) was 76 ± 17 (5) nA. For the same molecule, the “Etomidate current relative to GABA current (fold larger)” value (β2γ2 GABAA receptors; wild type β2γ2, 50 µM etomidate vs saturating GABA) was “about 7 fold”, the Etomidate current amplitude (β2γ2 GABAA receptors; β2γ2, 50 µM etomidate, −80 mV) was 946 ± 8 (4) nA and the Etomidate current amplitude (β2; 50 µM etomidate) was 4 ± 1 (4) nA.
